Reference: publication PMC8658989, “Synthesis and Biological Studies on (KLAKLAK)2-NH2 Analog Containing Unnatural Amino Acid β-Ala and Conjugates with Second Pharmacophore” (Molecules, 2021)
Read-outs that look alike come from different tables or passages of the source. Non-standard residues stand in square brackets, D forms with d. Residues, ends and D or L forms follow the SMILES beside them. *: point of attachment. Acetyl(1,8-naphthalimido) = O=C1c2cccc3cccc(c23)C(=O)N1CC(=O)*; Caffeoyl = O=C(/C=C/c1ccc(O)c(O)c1)*; βAla = NCCC(=O)O

What was measured:
MCF-7 = assay: Antiproliferative activity, MTT dye-reduction assay, MCF-7; type: cell-based, human; details: for IC50: MTT, 72 h, read-out: IC50 of Mean ± SD Antiproliferative Activity MCF-7; for SI ± SD MCF-7 (selective index): SI = IC50 of MCF-10A/IC50 of MCF-7
Procedure: (§1) The compounds were studied for antiproliferative activity by MTT dye-reduction assay. Cell cultures from different cell lines (MCF-10A, MCF-7 and MDA-MB-231) were incubated with the test substances at a concentration of 15 to 2000 μM for 72 h at 37 °C, 5% CO2 and 95% humidity. The antiproliferative activity expressed in % relative to the negative control was determined.
(§2) The antiproliferative activity testing was performed on cell cultures from several human cell lines using the standard MTT dye-reduction assay, described by Mosmann. The assay is based on the metabolism of the tetrazolium salt 3-(4,5-dimethylthiazol-2-yl)-2,5-diphenyltetrazolium bromide (MTT) to insoluble formazan by mitochondrial reductases. The formazan concentration can be determined spectrophotometrically. The measured absorption is an indicator of cell viability and metabolic activity. The following cell lines were used in the experiments: mammary gland type A adenocarcinoma ER+, PR+ and HER2− (MCF-7); triple-negative breast cancer ER−, PR−, and HER2− (MDA-MB-231); and breast, nontumorigenic epithelial cell line (MCF-10A). The cell lines were routinely grown as monolayers in 75 cm^2 tissue culture flasks under standard conditions (described above). Cells were plated at a density of 1 × 10^3 cells in 100 µL in each well of 96-well flat-bottomed microplates and allowed to adhere for 24 h before treatment with test compounds. A concentration range from 15 to 2000 μM was applied for 72 h. Formazan absorption was registered using a microplate reader at λ = 540 nm. Antiproliferative activities were expressed as IC50 values (concentrations required for 50% inhibition of cell growth), calculated using nonlinear regression analysis (GraphPad Prism 4 Software, https://www.graphpad.com).

MCF-10A = assay: Antiproliferative activity, MTT dye-reduction assay, MCF-10A; type: cell-based, human; details: 72 h, read-out: IC50 of Mean ± SD Antiproliferative Activity MCF-10A
Procedure: as §1
MCF-10A is a reliable model for normal human mammary epithelial cells, which serves as a control in experiments to determine antitumor activity.
as §2

[1] = Hydrolytic stability in model buffer solutions by HPLC; type: physicochemical; details: 72 h, model buffer solutions pH 2, pH 7.4 and pH 9, HPLC
Procedure: HPLC profiles of all target compounds at three different pH values that mimic human pH in the stomach (pH 2), blood plasma (pH 7.4) and small intestine (pH 9) are presented in the Supplementary Materials.
The designed changes in the structures, i.e., C-terminal amide modification, as well as the introduction of a β-Ala moiety, lead to complete stability of the target compounds during the test period in all model conditions.
The obtained solution was made up to 1000.0 mL with dH2O; • (ii) Buffer with pH 7.4–2.38 g Na2HPO4, 0.19 g KH2PO4 and 8.0 g NaCl was dissolved in dH2O. The obtained solution was made up to 1000.0 mL with dH2O. • (iii) Buffer with pH 9.0–1000.0 mL of solution I was mixed with 420.0 mL of solution II. Solution I: 6.18 g of H3BO3 was dissolved in 0.1 mol/L KCl, and it was made up to 1000.0 mL with the same solvent; Solution II: 0.1 mol/L NaOH.

MDA-MB-231 = assay: Antiproliferative activity, MTT dye-reduction assay, MDA-MB-231; type: cell-based, human; details: for IC50: MTT, 72 h, read-out: IC50 of Mean ± SD Antiproliferative Activity MDA-MB-231; for SI ± SD MDA-MB-231 (selective index): SI = IC50 of MCF-10A/IC50 of MDA-MB-231
Procedure: as §1, §2

Bacillus subtilis 3562 = assay: Antimicrobial assay, agar/disc diffusion, B. subtilis; type: cell-based; details: 6 μL of 20 μM solution on 6 mm paper disc, 24 h
Procedure: (§3) The microbial cultures were placed in a thin layer on sterile plates. On sterile paper discs, 6 μL of 20 μM solutions in distilled water of the test compounds was placed. Further, the discs were incorporated into a thin layer of sterile plates (Figure 3). The studies were triplicates for each concentration, and the diameters of the obtained zones represent the average value of the three results.
(§4) All newly synthesized derivatives of (KLAKLAK)2-NH2 at concentrations of 20 μM in distilled water were tested against model strains E. coli NBIMCC K12 407, B. subtilis NBIMCC 3562 and C. albicans NBIMCC 74. The strains were obtained from the National Bank for Industrial Microorganisms and Cell Cultures (NBIMCC, Sofia, Bulgaria). Exponential cultures (1 × 10^7 cfu/mL) of strains E. coli K12 407 were obtained in Luria-Bertani (LB, HiMedia, Mumbai, India); for B. subtilis 3562, an initial bacterial concentration of 1 × 10^6 cfu/mL was obtained in nutrient broth (NB, HiMedia, Mumbai, India); and for C. albicans 74, and initial bacterial concentration of 1 × 10^5 cfu/mL was obtained in yeast mold (YM) medium. Cultivation was performed in an ES-20/60 incubator shaker (Biosan, Riga, Latvia) at 30 °C for B. subtilis 3562 and at 37 °C for E. coli K12 407 and C. albicans 74 with shaking at 220 rpm for 24 h. The agar diffusion method was applied to determine the antimicrobial activity of the tested compounds. LB/NB/YM plates were inoculated by spreading 100 μL of each microbial culture on their surface, followed by incubation at 30/37 °C for penetration of suspension into the agar. After 30 min, sterile paper discs (6 mm in diameter) were soaked with the tested compounds in amounts of 6 µL and placed on the surface of agar Petri dishes. The plates were incubated at 30/37 °C for 24 h. Antimicrobial activity was assessed by measuring the diameter of the obtained inhibition zones. Sterile paper discs soaked with water were used as blank controls. Mean values were calculated by performing the experiments in triplicates.

[2] = In vitro cytotoxicity, 3T3 NRU test; type: cell-based; details: mouse, BALB/3T3 clone A31 mouse embryo cells, 24 h incubation, 15 to 2000 μM, read-out: IC50 of Mean ± SD Cytotoxicity BALB 3T3 (CC50)
Procedure: The newly synthesized compounds were studied for cytotoxicity assessment by an in vitro 3T3 NRU test. The cells were incubated with the test substances at a concentration of 15 to 2000 μM for 24 h at 37 °C, 5% CO2 and 95% humidity. The cytotoxicity expressed in % relative to the negative control was determined.
The cytotoxicity testing was performed as described by Borenfreund et al. and the latest modification of the validated BALB/3T3 clone A31 Neutral Red Uptake Assay (3T3 NRU test). BALB/3T3 clone A31 mouse embryo cells were grown as a monolayer in 75 cm^2 tissue culture flasks in high-glucose DMEM (4.5 g/L), supplemented with 10% FBS and antibiotics. Cultures were maintained at 37.5 °C in a humidified atmosphere under 5% CO2. Cells were plated at a density of 1 × 10^4 cells in 100 μL culture medium in each well of 96-well flat-bottomed microplates and allowed to adhere for 24 h before treatment with test compounds, dissolved in DMSO and further diluted in culture medium. A wide concentration range was applied (from 15 to 2000 μM), and the cells were incubated for an additional 24 h. After treatment with Neutral Red medium, washing and application of the ethanol/acetic acid solution (NR Desorb), the absorption was measured on a TECAN microplate reader at wavelength 540 nm. The data obtained are on average from three independent experiments ± SD, n = 6.

Candida albicans 74 = assay: Antimicrobial assay, agar/disc diffusion, C. albicans; type: cell-based; details: 6 μL of 20 μM solution on 6 mm paper disc, 24 h
Procedure: as §3, §4

Escherichia coli K12 407 = assay: Antimicrobial assay, agar/disc diffusion, E. coli; type: cell-based; details: 6 μL of 20 μM solution on 6 mm paper disc, 24 h
Procedure: as §3, §4

With `CC(C)C[C@H](NC(=O)[C@H](CCCCN)NC(=O)CCNC(=O)[C@H](CC(C)C)NC(=O)[C@H](CCCCN)NC(=O)CN1C(=O)c2cccc3cccc(c23)C1=O)C(=O)NCCC(=O)N[C@@H](CCCCN)C(=O)N[C@@H](CCCCN)C(=O)N[C@@H](CC(C)C)C(=O)NCCC(=O)N[C@@H](CCCCN)C(=O)N[C@@H](CC(C)C)C(=O)NCCC(=O)N[C@@H](CCCCN)C(N)=O` [Si4, 1,8-NphtG-(KLβ-AKLβ-AK)2-NH2] ({Acetyl(1,8-naphthalimido)}-KL[βAla]KL[βAla]KKL[βAla]KL[βAla]K-NH2) the IC50 (MCF-7) was 0.881 ± 0.0805 mM, the “SI ± SD MCF-7 (selective index)” value (MCF-7) was 1.51 ± 0.148 and the “SI ± SD MCF-7 (selective index)” value (MCF-7; listed as Si 4) was 1.505 ± 0.148. The IC50 (MCF-10A) was 1.33 ± 0.0695 mM, the Hydrolytic stability [1] was “complete hydrolytic stability” and the IC50 (MDA-MB-231) was 1.41 ± 0.0262 mM. For the same compound, the “SI ± SD MDA-MB-231 (selective index)” value (MDA-MB-231) was 0.940 ± 0.049, the “Inhibition zones size, Bacillus subtilis 3562” value (Bacillus subtilis 3562; listed as S4) was 15.83 mm and the CC50 at 24 h [2] was 1.22 ± 0.0405 mM. The “Inhibition zones size, Candida albicans 74” value (Candida albicans 74) was “good antimicrobial activity”, the “Inhibition zones size, Candida albicans 74” value (Candida albicans 74; listed as Si 4) was 14.33 ± 0.36 mm and the “Inhibition zones size, Escherichia coli K12 407” value (Escherichia coli K12 407; listed as S4) was 16 mm.

In the case of `CC(C)C[C@H](NC(=O)[C@H](CCCCN)NC(=O)CCNC(=O)[C@H](CC(C)C)NC(=O)[C@H](CCCCN)NC(=O)[C@H](CCCCN)NC(=O)CCNC(=O)[C@H](CC(C)C)NC(=O)[C@H](CCCCN)NC(=O)CCNC(=O)[C@H](CC(C)C)NC(=O)[C@@H](N)CCCCN)C(=O)NCCC(=O)N[C@@H](CCCCN)C(N)=O` [Si5, (KLβ-AKLβ-AK)2-NH2] (H-KL[βAla]KL[βAla]KKL[βAla]KL[βAla]K-NH2), the IC50 (MCF-7) is reported as 1.25 ± 0.0341 mM, the “SI ± SD MCF-7 (selective index)” value (MCF-7) is reported as 1.028 ± 0.033 and the IC50 (MCF-10A) is reported as 1.29 ± 0.0381 mM. For the same compound, the Hydrolytic stability [1] was “complete hydrolytic stability”, the IC50 (MDA-MB-231) was 1.45 ± 0.0157 mM and the “SI ± SD MDA-MB-231 (selective index)” value (MDA-MB-231) was 0.890 ± 0.033. The “Inhibition zones size, Bacillus subtilis 3562” value (Bacillus subtilis 3562) was 11.16 ± 0.25 mm, the CC50 at 24 h [2] was 1.27 ± 0.0707 mM and the “Inhibition zones size, Candida albicans 74” value (Candida albicans 74) was “did not show any antifungal activity”. The “Inhibition zones size, Candida albicans 74” value (Candida albicans 74; listed as Si 5) was 0 mm and the “Inhibition zones size, Escherichia coli K12 407” value (Escherichia coli K12 407) was 11.83 ± 0.27 mm.

For `CC(C)C[C@H](NC(=O)[C@H](CCCCN)NC(=O)CN1C(=O)c2cccc3cccc(c23)C1=O)C(=O)N[C@@H](C)C(=O)N[C@@H](CCCCN)C(=O)N[C@@H](CC(C)C)C(=O)N[C@@H](C)C(=O)N[C@@H](CCCCN)C(=O)N[C@@H](CCCCN)C(=O)N[C@@H](CC(C)C)C(=O)N[C@@H](C)C(=O)N[C@@H](CCCCN)C(=O)N[C@@H](CC(C)C)C(=O)N[C@@H](C)C(=O)N[C@@H](CCCCN)C(N)=O` [Si9, 1,8-NphtG-(KLAKLAK)2-NH2], the IC50 (MCF-7; listed as Si 9) was 0.0452 ± 0.00415 mM, the IC50 (MCF-7) was 0.045 ± 0.0042 mM and the “SI ± SD MCF-7 (selective index)” value (MCF-7) was 2.19 ± 0.147. For the same compound, the “SI ± SD MCF-7 (selective index)” value (MCF-7; listed as Si 9) was 2.192 ± 0.147, the IC50 (MCF-10A) was 0.0991 ± 0.00559 mM and the Hydrolytic stability [1] was “complete hydrolytic stability”. For the same compound, the IC50 (MDA-MB-231) was 0.179 ± 0.00292 mM, the “SI ± SD MDA-MB-231 (selective index)” value (MDA-MB-231) was 0.553 ± 0.037 and the “Inhibition zones size, Bacillus subtilis 3562” value (Bacillus subtilis 3562) was 13.50 ± 0.34 mm. The CC50 at 24 h [2] was 0.185 ± 0.0044 mM, the “Inhibition zones size, Candida albicans 74” value (Candida albicans 74) was 20.66 ± 0.45 mm and the “Inhibition zones size, Escherichia coli K12 407” value (Escherichia coli K12 407) was 11.33 ± 0.26 mm.

With `CC(C)C[C@H](NC(=O)[C@H](CCCCN)NC(=O)/C=C/c1ccc(O)c(O)c1)C(=O)NCCC(=O)N[C@@H](CCCCN)C(=O)N[C@@H](CC(C)C)C(=O)NCCC(=O)N[C@@H](CCCCN)C(=O)N[C@@H](CCCCN)C(=O)N[C@@H](CC(C)C)C(=O)NCCC(=O)N[C@@H](CCCCN)C(=O)N[C@@H](CC(C)C)C(=O)NCCC(=O)N[C@@H](CCCCN)C(N)=O` [Si12, Caf-(KLβ-AKLβ-AK)2-NH2] (Caffeoyl-KL[βAla]KL[βAla]KKL[βAla]KL[βAla]K-NH2) the melting point was 160 to 162 °C, the “Inhibition zones size, Bacillus subtilis 3562” value (Bacillus subtilis 3562) was “good antimicrobial activity” and the CC50 at 24 h [2] was 0.88 ± 0.0303 mM. For the same compound, the “Inhibition zones size, Candida albicans 74” value (Candida albicans 74) was “did not show any antifungal activity” and the “Inhibition zones size, Escherichia coli K12 407” value (Escherichia coli K12 407) was “good antimicrobial activity”.
